According to PMC12326988, “Synthetic host defense peptide inhibits SARS-CoV-2 replication in vitro” (Antimicrobial Agents and Chemotherapy, 2025):
Converted amounts (≈) assume the structure as drawn. Square brackets hold non-standard residues; d marks the D form. Ends that are not written are not given here. Peptide text beside a SMILES is read from it.

Assays:
[1] = test system: ELVIRA Flu A cells; details: 50 µg/mL
[2] = test system: SARS-CoV-2-Nluc; details: 72 h
[3] = test system: MDCK cells; details: 50 µg/mL
[4] = test system: SARS-CoV-2 hCoV-19/New Zealand/NZ1_patient/2020; details: hCoV-19/New Zealand/NZ1 patient/2020, 72 h
[5] = test system: SARS-CoV-2 hCoV-19/New Zealand/NZ1_patient/2020; details: hCoV-19/New Zealand/NZ1 patient/2020, 72 h; remark: listed apart in the source
[6] = in vitro; details: African green monkey
[7] = in vitro; details: African green monkey; human
[8] = test system: SARS-CoV-2 (Wuhan) spike-pseudotyped virus; details: for EC50, entry of pseudotyped virus: HEK293T-ACE2 cells incubated with agent prior to pseudotyped virus
[9] = test system: SARS-CoV-2 hCoV-19/New Zealand/NZ1_patient/2020; assay type: cell-based
[10] = test system: authentic SARS-CoV-2 virions; details: 100 µg/mL, 1 h
[11] = test system: SARS-CoV-2 γ spike-pseudotyped virus; assay type: cell-based; details: virus exposed to agent 1 h, then HEK293T-hACE2 cells
[12] = test system: VSV-g-pseudotyped virus; assay type: cell-based; details: virus exposed to agent 1 h, then HEK293T-hACE2 cells
[13] = test system: binding of the SARS-CoV-2 RBD to its human ACE2 receptor; details: cited from earlier work
[14] = biological target: binding between SARS-CoV-2 Wuhan RBD-Fc and hACE2-AP (UniProt P0DTC2+Q9BYF1); parameters: species or system SARS-CoV-2; human
binding between SARS-CoV-2 Wuhan RBD-Fc and hACE2-AP, sequence (Q9BYF1 18-740, one chain of several): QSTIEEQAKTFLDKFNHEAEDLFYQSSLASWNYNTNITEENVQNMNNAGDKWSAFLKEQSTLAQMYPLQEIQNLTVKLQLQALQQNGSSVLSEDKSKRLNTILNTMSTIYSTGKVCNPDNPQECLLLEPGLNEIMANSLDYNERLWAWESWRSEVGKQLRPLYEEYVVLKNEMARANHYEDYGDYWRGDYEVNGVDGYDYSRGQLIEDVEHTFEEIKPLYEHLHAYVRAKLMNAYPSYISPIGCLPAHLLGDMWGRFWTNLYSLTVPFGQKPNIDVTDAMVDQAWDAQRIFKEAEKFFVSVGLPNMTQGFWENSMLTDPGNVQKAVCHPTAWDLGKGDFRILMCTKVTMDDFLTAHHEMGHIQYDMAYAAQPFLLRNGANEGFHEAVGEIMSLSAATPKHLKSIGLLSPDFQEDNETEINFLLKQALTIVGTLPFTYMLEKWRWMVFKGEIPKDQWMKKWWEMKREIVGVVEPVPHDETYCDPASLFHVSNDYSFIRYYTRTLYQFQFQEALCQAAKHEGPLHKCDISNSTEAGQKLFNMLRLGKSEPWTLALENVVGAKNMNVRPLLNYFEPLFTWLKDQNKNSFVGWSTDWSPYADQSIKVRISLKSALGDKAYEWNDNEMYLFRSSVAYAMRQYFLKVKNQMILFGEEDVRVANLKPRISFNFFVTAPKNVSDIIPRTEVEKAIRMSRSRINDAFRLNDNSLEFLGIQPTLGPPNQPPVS

CC[C@@H](C)[C@@H](N)C(=O)N[C@H](Cc1c[nH]c2ccccc12)C(=O)N[C@H](CC(C)C)C(=O)N[C@H](CCCNC(=N)N)C(=O)N[C@H](CC(C)C)C(=O)N[C@H](CCCCN)C(=O)N[C@@H](C(=O)N[C@@H](C(=O)N[C@H](CC(C)C)C(=O)N[C@H](CCCCN)C(=O)N[C@H](CCCNC(=N)N)C(=O)N[C@H](CCCCN)C(N)=O)C(C)C)C(C)C [D-3006, iwlrlkvvlkrk-NH2] (H-[dI][dW][dL][dR][dL][dK][dV][dV][dL][dK][dR][dK]-NH2)
cell viability [1]: did not affect the viability
EC50 [2]: 5.4 µg/mL (≈ 3.48 µM)
cell viability [3]: did not affect the viability
EC50 VeroE6/TMPRSS2 [4]: 5.37 µg/mL (≈ 3.46 µM)
EC50 Vero [5]: 1.57 µg/mL (≈ 1.01 µM)
CC50 [6]: 430 µg/mL
CC50 at 48 h [7]: > 100 µg/mL
EC50, entry of pseudotyped virus [8]: 5.84 µg/mL

CC[C@@H](C)[C@@H](NC(=O)[C@@H](CCCCN)NC(=O)[C@@H](CC(C)C)NC(=O)[C@H](N)C(C)C)C(=O)N[C@H](CCCCN)C(=O)N[C@@H](C(=O)N[C@H](CCCCN)C(=O)N[C@@H](C(=O)N[C@H](Cc1c[nH]c2ccccc12)C(=O)N[C@@H](C(=O)N[C@@H](C(=O)N[C@H](CCCCN)C(N)=O)C(C)C)C(C)C)[C@H](C)CC)C(C)C [D-3007, vlkikvkiwvvk-NH2] (H-[dV][dL][dK][dI][dK][dV][dK][dI][dW][dV][dV][dK]-NH2)
EC50 VeroE6/TMPRSS2 [4]: 30.53 µg/mL (≈ 21 µM)
EC50 Vero [5]: 23.86 µg/mL (≈ 16.4 µM)
CC50 [6]: 708 µg/mL

CC[C@@H](C)[C@@H](NC(=O)[C@@H](C)NC(=O)[C@@H](CCCNC(=N)N)NC(=O)[C@@H](Cc1c[nH]c2ccccc12)NC(=O)[C@@H](CCC(N)=O)NC(=O)[C@H](N)C(C)C)C(=O)N[C@H](CCCNC(=N)N)C(=O)N[C@@H](C(=O)N[C@H](CCCNC(=N)N)C(=O)N[C@@H](C(=O)N[C@@H](C(=O)N[C@H](CCCNC(=N)N)C(N)=O)[C@H](C)CC)C(C)C)C(C)C [DJK-5, vqwrairvrvir-NH2] (H-[dV][dQ][dW][dR][dA][dI][dR][dV][dR][dV][dI][dR]-NH2)
EC50 VeroE6/TMPRSS2 [4]: 29.31 µg/mL (≈ 18.9 µM)
EC50 Vero [5]: 25.16 µg/mL (≈ 16.2 µM)
CC50 [6]: 517 µg/mL

CCC(CC)COC(=O)[C@H](C)N[P@](=O)(OC[C@H]1O[C@@](C#N)(c2ccc3c(N)ncnn23)[C@H](O)[C@@H]1O)Oc1ccccc1 [Remdesivir, remdesivir, reference compound]
inhibition of SARS-CoV-2 replication [9]: 98%
CC50 [6]: > 100 µM

CC[C@H](C)[C@H](NC(=O)CN)C(=O)NCC(=O)N[C@@H](C)C(=O)N[C@H](C(=O)N[C@@H](CC(C)C)C(=O)N[C@@H](CCCCN)C(=O)N[C@H](C(=O)N[C@@H](CC(C)C)C(=O)N[C@H](C(=O)N[C@H](C(=O)NCC(=O)N[C@@H](CC(C)C)C(=O)N1CCC[C@H]1C(=O)N[C@@H](C)C(=O)N[C@@H](CC(C)C)C(=O)N[C@H](C(=O)N[C@@H](CO)C(=O)N[C@@H](Cc1c[nH]c2ccccc12)C(=O)N[C@H](C(=O)N[C@@H](CCCCN)C(=O)N[C@@H](CCCNC(=N)N)C(=O)N[C@@H](CCCCN)C(=O)N[C@@H](CCCNC(=N)N)C(=O)N[C@@H](CCC(N)=O)C(=O)N[C@@H](CCC(N)=O)C(N)=O)[C@@H](C)CC)[C@@H](C)CC)[C@@H](C)O)[C@@H](C)O)C(C)C)C(C)C [melittin]
mean number of intact virus particles per field [10]: 1.3
NT50 [11]: 11.6 µg/mL
viability [7]: 51.7%
NT50 [12]: 5.51 µg/mL
EC50, entry of pseudotyped virus [8]: 13.2 µg/mL
NT50 ([8]; agent incubated with pseudotyped virus 1 h, then HEK293T-hACE2 cells): 12.5 µg/mL

HNP1
affinity, interference with binding of SARS-CoV-2 RBD to human ACE2 [13]: 160 nM

LL-37
affinity, interference with binding of SARS-CoV-2 RBD to human ACE2 [13]: 25.5 nM

VRLIVAVRIWRR-NH2 [IDR-1018]
EC50 VeroE6/TMPRSS2 [4]: 28.72 µg/mL
EC50 Vero [5]: 21.79 µg/mL
CC50 [6]: 686 µg/mL

shACE2
IC50, inhibition of hACE2-RBD binding [14]: 6.6 µg/mL
inhibition of SARS-CoV-2 replication [9]: 72%
NT50 [12]: > 100 µg/mL
